Measured values taken from ChEMBL document CHEMBL4257084, “Novel functionalized 5-(phenoxymethyl)-1,3-dioxane analogs exhibiting cytochrome p450 inhibition and their method of use” (2016).
pIC50: −log10 of the molar value.

Target: T1, Cytochrome P450 11B1, mitochondrial (Homo sapiens, UniProt P15538)
T1 sequence (P15538 whole entry): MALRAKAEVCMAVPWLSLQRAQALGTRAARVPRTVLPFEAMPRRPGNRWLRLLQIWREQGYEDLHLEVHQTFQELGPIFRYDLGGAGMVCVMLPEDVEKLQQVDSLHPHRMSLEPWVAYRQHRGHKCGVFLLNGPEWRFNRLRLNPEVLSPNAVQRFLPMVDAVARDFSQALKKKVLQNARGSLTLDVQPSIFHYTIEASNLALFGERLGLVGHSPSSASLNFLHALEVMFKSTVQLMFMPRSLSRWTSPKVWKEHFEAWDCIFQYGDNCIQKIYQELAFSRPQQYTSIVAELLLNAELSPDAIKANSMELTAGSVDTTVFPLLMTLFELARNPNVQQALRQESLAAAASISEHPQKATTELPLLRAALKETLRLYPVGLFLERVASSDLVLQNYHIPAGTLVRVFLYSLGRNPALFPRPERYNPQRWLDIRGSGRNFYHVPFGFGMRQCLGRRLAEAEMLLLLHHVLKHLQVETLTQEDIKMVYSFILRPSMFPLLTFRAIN
Experiment: Inhibition of recombinant CYP11 (unknown origin) expressed in human AD293 cells assessed as reduction in cortisol level preincubated for 60 mins followed by 11-deoxy cortisol substrate addition and measured after 12 hrs by LC-MS method
Format: cell-based

pIC50: 5.00
Compound: CS(=O)(=O)N1CCN(c2ccc(CO[C@H]3CO[C@@](Cn4ccnc4)(c4ccccc4Cl)OC3)cc2)CC1
